Results as given in PubChem BioAssay (NCI).
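1) Cells in 96-well plates. 2) Compound, 48 h, 5 concentrations. 3) Linear interpolation between surrounding doses. 4) Unreached endpoint = highest concentration. Here, GI50 denotes the concentration required for 50% inhibition of growth. At the TGI there is no net growth.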

Columns and labels:
Experiment in all cases: DTP human tumour cell line panel, 48 h
LXFL 529 NSCLC = tested on: LXFL 529 NSCLC
HOP-18 NSCLC = tested on: HOP-18 NSCLC
KM20L2 colon = tested on: KM20L2 colon
M19-MEL melanoma = tested on: M19-MEL melanoma
DLD-1 colon = tested on: DLD-1 colon
XF 498 CNS = tested on: XF 498 CNS
RXF-631 renal = tested on: RXF-631 renal
SNB-78 CNS = tested on: SNB-78 CNS

SMILES: C[CH2][Ge]([CH2]C)([CH2]C)[O]C(=O)CCC(=O)[O][Ge]([CH2]C)([CH2]C)[CH2]C
- GI50 (LXFL 529 NSCLC): 42.5 µM
- TGI (LXFL 529 NSCLC): > 100 µM
- GI50 (HOP-18 NSCLC): > 100 µM
- TGI (HOP-18 NSCLC): > 100 µM
- GI50 (KM20L2 colon): > 100 µM
- TGI (KM20L2 colon): > 100 µM
- GI50 (M19-MEL melanoma): > 100 µM
- TGI (M19-MEL melanoma): > 100 µM
- GI50 (DLD-1 colon): 38.7 µM
- TGI (DLD-1 colon): > 100 µM
- GI50 (XF 498 CNS): > 100 µM
- TGI (XF 498 CNS): > 100 µM

SMILES: Cc1ccc(C(O)(c2ccc(C)cc2)c2ccccn2)cc1
- TGI (RXF-631 renal): > 100 µM
- TGI (HOP-18 NSCLC): > 100 µM
- TGI (KM20L2 colon): > 100 µM
- TGI (M19-MEL melanoma): > 100 µM
- TGI (SNB-78 CNS): > 100 µM
- TGI (DLD-1 colon): > 100 µM

SMILES: c1cncc(O[Si](Oc2cccnc2)(Oc2cccnc2)Oc2cccnc2)c1
- TGI (RXF-631 renal): > 100 µM
- TGI (HOP-18 NSCLC): > 100 µM
- TGI (M19-MEL melanoma): > 100 µM
- TGI (SNB-78 CNS): > 100 µM
- TGI (DLD-1 colon): > 100 µM
- TGI (XF 498 CNS): > 100 µM
